Experiments:
[1] = test system: Arabidopsis root exudates; test: LC-MS of root exudates of ascr #18-treated Arabidopsis seedlings; format: in vivo, Arabidopsis thaliana
Experimental: (§1) Data are average±SEM (n=6), n.d.=not detected. […] Exudates from approximately 40 seedlings were collected in distilled water and pooled. Abundances of ascarosides are shown as the peak area, as measured by LC-MS. Data are average±SEM (n=3); n.d.=not detected. FIGS. 5C and 5D show the relative abundances of ascarosides in root exudates of eight-day old tomato seedlings treated with 10 nM (FIG. 5C) or 1000 nM (FIG. 5D) ascr #18 for 6 hours. Exudates from approximately 10 seedlings were collected in distilled water and pooled. Abundances of ascarosides are shown as the peak area, as measured by LC-MS. Data are average±SEM (n=3); n.d.=not detected. FIG. 5E provides the relative abundances of ascr #10, ascr #1, and ascr #9 in the growth media of eight-day old tomato seedlings supplemented with 1 μM ascr #18. Ten-gram media samples were collected at different time points over a 48 hour period for metabolome extraction. Abundances of ascarosides are shown as the peak area, as measured by LC-MS.
(§2) To test this possibility, root-secreted metabolites of ascr #18- and mock-treated Arabidopsis were compared (FIG. 5A). For this experiment, 10-day old Arabidopsis seedlings were treated in growth media supplemented with ascr #18 for 6 hours prior to collection of exudates from roots submerged in water. […] Analogous results were obtained in experiments with tomato roots (FIG. 5C, 5D).

tomato leaves = test: LC-MS analysis of tomato leaves infiltrated with ascr #18; format: in vivo, Solanum lycopersicum; conditions: 4-week old tomato plants infiltrated with 1 μM ascr #18
Description: FIG. 2A provides LC-MS analysis of tomato roots treated with ascr #18 or ^13C2-labeled ascr #18. Plants treated with ^13C2-labeled ascr #18 show peaks at 333.21932 and 249.12542, representing [M-H]^− of ^13C2-ascr #18 and ^13C2-ascr #9, but not at 331.21261 and 247.11871, which correspond to [M-H]^− of ascr #18 and ascr #9, and vice versa. Structures of ascr #18 and ascr #9 indicating the positions of the ^13C2-label are shown above ion chromatograms. Peaks marked with an asterisk represent unrelated peaks. FIGS. 2B and 2C provide graphs showing the relative abundances of ascr #18 and ascr #9, respectively, as measured by LC-MS. Four-week old Arabidopsis leaves were infiltrated with 1 μM ascr #18, and leaf tissue were harvested for LC-MS analyses over a period of 96 hours post infiltration of ascr #18. Data are averages±SEM (n=3). FIG. 2D provides LC-MS analyses of tomato leaves infiltrated with 1 μM ascr #18. Tissues were collected over a 12 hour period. Abundances of ascr #18 and ascr #9 are shown as the peak area, as measured by LC-MS. […] To test whether microbes are required for the observed metabolic transformations, leaves of 4-week old Arabidopsis plants were directly infiltrated with ascr #18 and leaf tissue was subsequently harvested for analysis by LC-MS as above. […]

tomato root exudates = test: LC-MS of root exudates and growth media of ascr #18-treated tomato seedlings; format: in vivo, Solanum lycopersicum
Experimental: as §1, §2

| SMILES | ascarosides in root exudates of acx1acx5 ([1]; acx1acx5 seedlings, 10 nM ascr #18 for 6 hours) | relative abundance among root-excreted ascr #18 metabolites ([1]; Arabidopsis) | secretion of ascr #18 metabolites via roots ([1]; ascr #18-treated wildtype, 6 hours treatment) | formation of ascr #9 in leaves (tomato leaves) | relative abundance among root-excreted ascr #18 metabolites (tomato root exudates) |
| --- | --- | --- | --- | --- | --- |
| CC1O[C@@H](O[C@@H](C)CCCCCCCCC(=O)O)C(O)C[C@H]1O (stereo in doubt) [ascr #18, (10R)-(3′R,5′R-dihydroxy-6′S-methyl-(2H)-tetrahydropyran-2-yloxy)-undecanoic acid] | larger amounts of residual ascr #18 than in wildtype | – | – | – | – |
| C[C@H](CCC(=O)O)O[C@@H]1O[C@@H](C)[C@H](O)C[C@H]1O [ascr #9] | – | most abundant | secretion | observed | most abundant |

From patent publication US20260000079A1, “COMPOSITIONS AND METHODS FOR MODULATING IMMUNITY IN PLANTS” (BOYCE THOMPSON INSTITUTE FOR PLANT RESEARCH, INC., priority 2019, published 2026)
